# Assay results reported in US20090271164A1, “PREDICTING LONG-TERM EFFICACY OF A COMPOUND IN THE TREATMENT OF PSORIASIS” (priority 2008, published 2009).
# “And” between values parts separate entries of the source, which are not always exact repeats. Identical values can stand only once. Like-named read-outs stand apart in the source and are kept apart here.
# Columns and labels:
# [1] = test system: patients with moderate-to-severe chronic plaque psoriasis; experiment: Study M04-716 (CHAMPION), 16-week Phase III active- and placebo-controlled trial, PASI 75 response; format: in vivo, human; conditions: for PASI 75 response rate at Week 16: observed, Week 16 relative to Baseline
# Method: The primary efficacy endpoint was the proportion of subjects achieving at least a 75% reduction in the Psoriasis Area and Severity Index (PASI) score (i.e., ≧PASI 75 response) at Week 16 relative to Baseline (Week 0).
# Study M04-716 was a 16-week multicenter, double-blind, and double-dummy study.
# PASI scores were assessed prior to the first dose of study drug (Baseline) and at Weeks 1, 2, 4, 8, 12 and 16.
# Dose escalation/titration was carried out according to the efficacy and safety criteria defined in the protocol.
# In addition, the subjects were candidates for systemic therapy or phototherapy.
# The ADA treatment group received 40 mg every-other-week (eow) injections from Week 1, following an 80-mg initial dose. […] Dose escalation was carried out according to the efficacy and safety criteria defined in the study protocol. All study patients received injections as well as oral tablets, regardless of treatment group assignment (double-dummy design) (FIG. 5). Patient outcome was measured using a PASI 75 response: a 75% reduction (improvement) in PASI score at Week 16 compared with the baseline score.
# [2] = test system: patients with moderate-to-severe chronic plaque psoriasis; experiment: Population PK/PD (exposure-efficacy) modeling with NONMEM and clinical trial simulation of long-term MTX treatment; design: species or system human
# Source text: The PK/PD model was built using a non-linear mixed-effects population modeling (NONMEM) approach with NONMEM software (double precision, Version VI) and a NMTRAN pre-processor. Models were compiled using the Intel Visual Fortran compiler (Version 9) on a dual processor workstation (DELL Precision 530) under the Windows 2000 (Service pack 4) operating system.
# All 110 MTX-treated subjects in Study M04-716 were included in the population PK/PD analysis.
# All the observed PASI scores over the 16-week period in MTX-treated subjects in Study M04-716 were used.
# The amount in the central compartment was scaled by the apparent volume of distribution (V/F).
# All subjects were assumed to have the typical PK parameter values (i.e., intersubject and intrasubject variabilities were set to zero).
# Several PD models were examined. The first model is an indirect response model with an inhibitory effect (Imax and IC50) of Ce (concentration at an effect compartment) on Kin. Kin is the ‘synthesis rate’ into a compartment where PASI scores reside in. The 2nd model examined was similar to the final PD model (see below), except that the rate into the 3rd compartment is Kin·(Emax/(1+EC50/Cp)), rather than Kin·Cp.
# The final PD model is a two-step indirect model (as shown below). […] In this model, Compartments 3 and 4 were added as delay/modulator compartments for triggering the observed PASI response.
# Kin and Kout are the rate constants into and out of Compartment 3. […] Kout was set equal to Kin. K40 is the rate constant out of Compartment 4, and it controls the persistence of PASI response. PASI is the predicted PASI score, which equals to the baseline PASI score divided by a factor great than one, and the parameter ‘GAM’ influences the steepness of the functional relationship.
# For the PD modeling, exponential error models were used to describe the inter-individual errors on the PD parameters Kin and K40.
# The evaluation criteria used to select an appropriate PK/PD model are described below: • 1. […] The OFV is equal to −2 times the maximum logarithm of the likelihood of the data (−2LL). Non-hierarchical models are compared based on the AKAIKE criterion. • 2. The observed and predicted PASI scores from a preferred model were more randomly distributed across the line of unity (a straight line with zero intercept and a slope of one) than those from alternative model(s). • 3.
# The first-order conditional estimation (FOCE) with INTERACTION method was employed within NONMEM, and a diagonal structure of the n matrix was assumed.
# The final population PK/PD model was validated using a bootstrap method (random resampling with replacement). […]
# [3] = cited from earlier work
# [4] = two-step indirect response model, Run 18
# [5] = fixed in the PK model, from the literature
"calculated Tmax ([2]; with CL/F = 3 L/day/kg, V/F = 0.6 L/kg, Ka = 10 day^−1)",Molecule,PASI75 Response Rate (90% CI) Actual (NRI) ([1]; Week 1),PASI75 Response Rate (90% CI) Actual (NRI) ([1]; Week 2),PASI75 Response Rate (90% CI) Actual (NRI) ([1]; Week 4),PASI75 Response Rate (90% CI) Actual (NRI) ([1]; Week 8),PASI75 Response Rate (90% CI) Actual (NRI) ([1]; Week 16),PASI 75 response rate at Week 16 [1] [%],simulated PASI 75 response rate at Week 52 greater than that at Week 16 ([2]; difference Week 52 vs Week 16),"K40 = THETA (2), estimate, final PD model [2, 4] [day⁻¹]","Kin = THETA (1), estimate, final PD model [2, 4] [day⁻¹]","V/F (apparent volume of distribution), values in the literature ([3]; RA) [L/kg in RA.^2]","CL/F (apparent clearance), value used in NONMEM [3, 5] [mL/min/kg]","Ka (first-order absorption rate constant), value used in NONMEM [3, 5] [day⁻¹]","V/F (apparent volume of distribution), value used in NONMEM [3, 5] [L/kg]",half-life ([3]; in vivo) [h],"Tmax, values in the literature ([3]; leukemic pediatric patients)","Vss (volume of distribution at steady state), values in the literature ([3]; patient population unspecified)","CL/F (apparent clearance), values in the literature ([3]; patients with psoriasis)","Tmax, values in the literature ([3]; patients with psoriasis)","CL/F (apparent clearance), values in the literature ([3]; patients with rheumatoid arthritis (RA))"
"Tmax would be 3.3 hrs,","CN(Cc1cnc2nc(N)nc(N)c2n1)c1ccc(C(=O)N[C@@H](CCC(=O)O)C(=O)O)cc1 [MTX, methotrexate]","0.0 (0.1, 3.2)","0.0 (0.1, 3.2)","2.7 (0.8, 7.2)","9.1 (5.2, 15.2)","35.5 (28.0, 43.7)",35.5,approximately 12%,0.0203,3.83,0.55,2.1,10,0.6,2 to 3,Tmax = 0.67-4 hrs in leukemic pediatric patients.^3,0.4-0.8 L/kg (Vss).^3,12.4 L/h and 10.8 L/h and 11.5 L/h,Tmax = 2 hrs in patients with psoriasis.,2.1 mL/min/kg in patients with rheumatoid
–,adalimumab,–,–,–,–,–,79.6,–,–,–,–,–,–,–,–,–,–,–,–,–
